Data on three compounds can be found in patent publication US20250388554A1, “ANTIBACTERIAL COMPOUNDS, METHOD OF PRODUCTION AND USE THEREOF” (priority 2024, published 2025).

Data set [1] has as its system Mtb H37Rv in RAW 264.7 macrophages. Briefly: Efficacy testing in Mtb infected macrophage model. The data set is classed as cell-based, Mycobacterium tuberculosis. The note with it: RAW 264.7, MOI=10, 3 days of treatment, 0-240 μM.
The next data set deals with IGPD (Rv1601) (Mycobacterium tuberculosis, UniProt P9WML9). Put plainly: IGPD stopped-assay, IC50 study. In kind it is biochemical.
Data set [2] deals with Mtb H37Rv. Briefly: Resazurin assay (REMA) / alamarBlue MIC. The note with it: Mycobacterium tuberculosis, minimal media. The data set is classed as cell-based. On the technique in general: Alamar Blue is a resazurin reagent that responds to reducing activity.
The test system of data set [3] is Mtb H37Rv. Further details: species or system Mycobacterium tuberculosis. The conditions noted are these: in vivo; for bacterial burden in lungs vs untreated control (CFU) / bacterial burden in spleen vs untreated control (CFU): 100 mg/kg.
Data set [4] can be described thus: Acute oral toxicity study (OECD 425), 14 days. The note with it: for serum levels of SGOT, SGPT, creatinine, and urea compared to the untreated group: all doses, day 14; for LD50: oral, single dose, mice; for body weight compared to the untreated group: single oral dose, female mice, monitored for 14 days. The procedure:
Healthy CD-1 female mice with weight 34±4 grams were used. The animals were housed individually in cages and maintained in a standard laboratory environment. […] A limit dose of 2000 mg/kg body weight of compound was used involving three mice. Each mouse was treated with a single oral dose of 5, 50, 500, 2000 mg/kg body weight on Day 0. Animals were observed individually at least once during the first 30 min after dosing, periodically during the first 24 h and daily thereafter, for a total of 14 days for any clinical signs of toxicity or mortality. At the end of 14 day's observation period, the animals were anaesthetized, and their blood samples were collected through retro orbital bleeding for biochemical and histopathological studies, respectively. For biochemical analysis, blood was centrifuged at 4000 rpm at 4° C. for 10 min, serum was separated and Serum Glutamate Pyruvic Transaminase (SGPT), Serum Glutamate Oxaloacetic Transaminase (SGOT), creatinine, and, urea were estimated using a semi-automated Biochemical coralyzer. For histopathological studies, the animals were euthanized and the livers and kidneys were harvested and examined macroscopically. These organs were then preserved in 10% formalin made in PBS for histopathological examinations by standard techniques.
For this, the liver and kidney tissue samples were embedded into wax blocks. The wax blocks were subjected to microtome to generate sections, which were then stained with Hematoxylin and Eosin dyes at a commercial facility. The tissue sections were viewed in a bright field microscope at 40× magnification.

Setting [5] is: female, CD-1, mouse, in vivo, po, 2000 mg/kg, 14 days.
Where [6] appears, read: single oral dose 5 mg/kg, 5 mice initial, 14 days.
Where [7] appears, read: single oral dose 5 mg/kg, 5 mice, 14 days.
Where [8] appears, read: single oral dose 50 mg/kg, 5 mice initial, 14 days.
Where [9] appears, read: single oral dose 50 mg/kg, 5 mice, 14 days.
Setting [10] is: single oral dose 500 mg/kg, 5 mice initial, 14 days.
The mark [11] stands for this setting: single oral dose 500 mg/kg, 5 mice, 14 days.

The structures appear in SMILES notation. Values after ≈ are worked out from the molar mass of the structure shown.

Chain of IGPD (Rv1601) (P9WML9 whole entry, looked up): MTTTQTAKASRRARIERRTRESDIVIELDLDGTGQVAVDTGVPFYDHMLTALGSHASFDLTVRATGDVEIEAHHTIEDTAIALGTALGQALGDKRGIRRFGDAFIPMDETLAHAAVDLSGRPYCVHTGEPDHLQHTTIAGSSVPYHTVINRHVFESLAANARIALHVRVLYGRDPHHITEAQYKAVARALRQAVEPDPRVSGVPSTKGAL

Turning to `CC(N)c1ncnn1C` (centres unmarked) [SF1, 1-(2-methyl-1,2,4-triazol-3-yl)ethanamine], the “bacterial load in Mtb infected macrophages (CFU)” value in data set [1] is “approximately a thousand-fold decline”. The compound also displayed a 50% inhibitory concentration (IC50) against IGPD (Rv1601) of 33.5 µM. The compound further came in with an MIC99 against Mtb H37Rv [2] of 31.2 µM (≈ 3.94 µg/mL). In the data set with Mtb H37Rv [3] (po), the “bacterial burden in lungs vs untreated control (CFU)” value is given as “no reduction in the bacterial burden” and the “bacterial burden in spleen vs untreated control (CFU)” value was “no reduction in the bacterial burden”.
In the case of `CC(C)C(N)c1ncnn1C` (centres unmarked) [SF2, 2-methyl-1-(2-methyl-1,2,4-triazol-3-yl)propan-1-amine], the “bacterial load in Mtb infected macrophages (CFU)” value in data set [1] is on record as “hundred-fold decline”. On IGPD (Rv1601), this compound came in with an IC50 of 44.1 µM. In data set [4], the “serum levels of SGOT, SGPT, creatinine, and urea compared to the untreated group” value is recorded as “no significant changes”; the LD50 result is listed as “greater than 2000 mg/kg body weight”; the “body weight compared to the untreated group” value is “increased for all doses while a slight dip in weight for 5 mg/kg body weight on 7th day was observed”. For the same compound, in data set [4] (setting [5]), the Mice number final was 5 and the “Total Deaths (D)” value was 0. In data set [4] (mouse, in vivo), the “clinical signs in surviving mice” value is given as “no clinical signs of adverse effects/toxicity”; the “kidney histology (H&E)” value is recorded as “no pathological changes”; the “liver histology (H&E), FIG. 11” value is recorded as “no pathological changes”. The compound also showed a Mice number final in data set [4] (setting [6]) of 5. Besides, the “Total Deaths (D)” value in data set [4] (setting [7]) is reported as 0. In data set [4] (setting [8]), this compound gave a Mice number final of 5. Also, the “Total Deaths (D)” value in data set [4] (setting [9]) stood at 0. In data set [4] (setting [10]), this compound yielded a Mice number final of 5. Besides, the “Total Deaths (D)” value in data set [4] (setting [11]) is reported as 0. In the data set with Mtb H37Rv [2], this compound gave an MIC99 of 125 µM (≈ 19.3 µg/mL). The “bacterial burden with supplementation of histidine” value in the data set on Mtb H37Rv [3] is “restored the bacterial burden to the untreated levels”. Moreover, in the data set on Mtb H37Rv [3] (po), the “bacterial burden in lungs vs untreated control (CFU)” value was “no reduction in the bacterial burden” and the “bacterial burden in spleen vs untreated control (CFU)” value is given as “no reduction in the bacterial burden”. In addition, in the data set on Mtb H37Rv [3] (po, 200 mg/kg), the “bacterial load in lungs vs untreated control (CFU)” value is “significant decrease in the bacterial load” and the “reduction in the bacterial load in spleen vs untreated control (CFU)” value was “not found to be statistically significant”.
Turning to `NCCSc1ncn[nH]1` [SF3, 2-(1H-1,2,4-triazol-5-ylsulfanyl)ethanamine], in data set [1], the “bacterial load in Mtb infected macrophages (CFU)” value is recorded as “did not reduce the bacterial load”. The same compound yielded an IC50 against IGPD (Rv1601) of 76.9 µM. Besides, in data set [4], the “serum levels of SGOT, SGPT, creatinine, and urea compared to the untreated group” value is “no significant changes”. Besides, the “kidney histology (H&E)” value in data set [4] (mouse, in vivo) is given as “no pathological changes”. For the same compound, in data set [4] (mouse, in vivo), the “liver histology (H&E), FIG. 11” value is given as “no pathological changes”. Further, the “clinical signs in surviving mice” value in data set [4] (oral 5, 50, 500 and 2000 mg/kg body weight, 14 days) is “no clinical signs of adverse effects/toxicity”. Moreover, in data set [4], the LD50 entry is given as “below 5000 mg/kg body weight”. Moreover, the clinical signs result in data set [4] (single dose of 5000 mg/kg, after 12-24 h) is “slowness and weight decline”. Moreover, the Mice number final was 5 in data set [4] (setting [6]); 5 in data set [4] (setting [8]); 5 in data set [4] (setting [10]); 3 in data set [4] (single oral dose 2000 mg/kg, 5 mice initial, 14 days); 2 in data set [4] (single oral dose 5000 mg/kg, 5 mice initial, 14 days). The “Total Deaths (D)” value in data set [4] (setting [7]) came out at 0; in data set [4] (setting [9]), 0; in data set [4] (setting [11]) it was 0; in data set [4] (single oral dose 2000 mg/kg, 5 mice, 14 days) it was 2; in data set [4] (single oral dose 5000 mg/kg, 5 mice, 14 days), 3. Also, in data set [4], the “body weight compared to the untreated group” value is “decreased for 5, 500, and 2000 mg/kg body weight and increased for 5000 mg/kg body weight”. The same compound came in with an MIC99 against Mtb H37Rv [2] of 500 µM (≈ 72.1 µg/mL). For the same compound, the “bacterial burden with supplementation of histidine” value in the data set on Mtb H37Rv [3] is “restored the bacterial burden to the untreated levels”. In addition, in the data set with Mtb H37Rv [3] (po), the “bacterial burden in lungs vs untreated control (CFU)” value is “significant lowering of the bacterial burden”. In addition, in the data set on Mtb H37Rv [3] (po), the “bacterial burden in spleen vs untreated control (CFU)” value is recorded as “significant lowering of the bacterial burden”.

Usually IC50 stands for the point on the concentration scale where inhibition reaches its midpoint. A high value points to a need for much substance. Usually MIC99 stands for an inhibitory concentration at the 99% level, which refers to growth in some studies and to a panel of isolates in others. Lower therefore signals greater potency.
